Results taken from patent US9415106B2, “α-form zinc-phthalocyanine nanowires having enhanced water solubility and water dispersibility, composite of an α-form zinc-phthalocyanine nanowire/phenothiazine, and method for preparing same” (POHANG UNIVERSITY OF SCIENCE AND TECHNOLOGY INDUSTRY …, priority 2011, dated 2016).

What was measured:
[1] = Water solubility, dispersibility and stability of aqueous solution after sonication; assay type: physicochemical
Description: An α-form ZnPc nanowire solution was prepared by adding 1 mg of α-form ZnPc nanowires collected from Si substrates into 5 ml of water, followed by sonication for various times in a bath sonicator (UC-10, JEIOTECH). The final solution was transferred for the measurement of optical absorbance using a UV-vis spectrometer (Agilent 8453 spectrophotometer). The concentration of the α-form ZnPc nanowire solution was determined by measurement of optical absorbance at 219 nm. The calibration curve was made by measuring the optical absorbance of a sequentially diluted solution at 219 nm.

KB cells = test: ROS generation in KB cells (Image-iT LIVE ROS Kit, H2DCFDA fluorescence); assay type: cell-based, human; conditions: irradiated with NIR 808 nm, 3 W/cm^2
Description: The PD activity of α-form ZnPc nanowire was proven by detecting reactive oxygen species generated upon illumination with NIR upon irradiation with NIR (λ=808 nm) laser. The reactive oxygen species generated from NIR-activated KB cells containing α-form ZnPc nanowires was assessed using Image-iT™ LIVE Reactive Oxygen Species (ROS) Kit.
This experiment is based on 5-(and-6)-carboxy-2′7′-dichlorodihydrofluorescein diacetate (carboxy-H2DCFDA) as a fluorogenic marker for ROS permeated viable cells. In the presence of ROS, the reduced carboxy-H2DCFDA is supposed to be oxidized to emit bright green fluorescence. Therefore, the oxidatively stressed cells by ROS could be recognized by green fluorescence.
The generation of reactive oxygen species (ROS) was monitored using Image-iT™ LIVE Reactive Oxygen Species Kit based on H2DCFDA (Molecular Probes/Invitrogen), following the manufacturer's protocol. Pre-seeded epidermoid mouth carcinoma cells (KB cells) were incubated with ZnPc nanowire solution (120 mg/L) at 37° C. with 5% CO2 for 18 hours. Then, after washing the cells thoroughly with phosphate buffer saline (PBS), the cells were irradiated with an 808 nm laser. […] In the presence of ROS, the reduced fluorescein compound is oxidized and emits bright green fluorescence. Fluorescence intensity was measured at 529 nm using a fluorescence spectrometer (Cary Eclipse, Varian).

[2] = Photothermal property: temperature change of aqueous solutions upon laser irradiation; assay type: physicochemical; conditions: 3 W/cm^2, 3 minutes
Description: The PT property was examined by monitoring temperature changes of α-form ZnPc nanowire aqueous solutions (60, 80, 120 mg/L) upon light illumination at two different wavelengths (λ) of 660 nm, at which the highest absorption occurs, and 808 nm, at which most biological systems become transparent, at the power of 3 W/cm^2.
The α-form ZnPc nanowire solution and zinc phthalocyanine tetrasulfonate (ZnPcS4) solutions at various concentrations (60, 80, 120 mg/L) were irradiated using a 660/808 nm laser (diode laser, JENOPTIK unique-mode GmbH, Germany) at 3 W/cm^2. The temperature of each solution was measured with a thermocouple connected temperature controller (Hanyoung, Korea) at 20-second intervals for a total of 3 minutes. Three sets per each solution were measured.

Row | Compound | water solubility (qualitative) [1] | amount of ROS generated (green fluorescence) (KB cells) | temperature of solution upon laser irradiation ([2]; 660 nm (FIGS. 18, 19), from room temperature, 60-120 mg/L) | temperature of solution upon laser irradiation ([2]; 808 nm, 120 mg/L)
1 | [Zn+2].c1ccc2c(c1)-c1nc-2nc2[n-]c(nc3nc([n-]c4nc(n1)-c1ccccc1-4)-c1ccccc1-3)c1ccccc21 [ZnPc powder, zinc-phthalocyanine] | did not increase |  |  | 
2 | zinc phthalocyanine tetrasulfonate [ZnPcS4] |  | insignificant | similar | negligible temperature changes
